“Also recorded” adds a separate entry of the source. Where two headings read alike, the source gives them in different places.
Tests used:
[1] = test system: Primary normal human lung fibroblasts (NHLFs); experiment: Drug cytotoxicity assay (MTT); conditions: 24 h
Experimental: Primary normal human lung fibroblasts (NHLFs) were seeded on 24-well plates and cultured in FGM-2 media (LONZA, Basel, Switzerland) until they reached 80% confluency. […] Briefly, 50 µL of MTT dye was added into the media and the cells were returned to the incubator for 3 h. Then 500 µL of solubilization solution was added to dissolve the MTT formazan crystals. […] The drug cytotoxicity assay was performed in triplicate.

[2] = test system: P. falciparum W2; experiment: Parasite stage specific effect, W2; assay type: cell-based, Plasmodium falciparum; conditions: W2, 24 h; 17-DMAG 1.2 µM, NVP-AUY922 0.72 µM
Experimental: (§1) Synchronized P. falciparum cultures were used to determine the susceptibility of different parasite stages to Hsp90 inhibitors. Three synchronized cultures per strain, with a majority of the parasites in the ring (0–26 h post red blood cell infection), trophozoite (26–38 h) or schizont (38–48 h) stages respectively (Fig. 3). […] The cultures were exposed to one concentration of the Hsp90 inhibitor for 24 h. […] For each three exposed the cultures and the control for both strains 3D7 and W2, the parasitaemia and the developmental stage of the parasites were recorded. Before and after drug exposure, Giemsa-stained blood smears were scored by microscopy examination counting 100 infected erythrocytes per culture, and the proportion of each developmental stage was calculated.

[3] = test system: P. falciparum chloroquine sensitive 3D7; experiment: Growth inhibition assay (SYBR Green I), 3D7; conditions: 3D7, 72 h; for IC50: synchronized ring culture
Experimental: (§5) A 50% suspension of non-infected O positive erythrocytes was added every 2 days to adjust haematocrit to 5%. Parasite cultures were maintained at 37 °C in 5% O2 and 5% CO2 atmosphere with daily changes of culture media.
(§6) A synchronized P. falciparum culture, with over 80% ring forms, was used in the growth inhibition assay. […] A 190 μL aliquot of parasite culture was dispensed per well to microplates that were pre-dispensed with the compounds at various dilutions. […] Dilutions of Hsp90 inhibitors and DHA were prepared in water with a final concentration of DMSO below 0.05% (v/v).
(§7) The microplates were incubated at 37 °C in a controlled atmosphere (5% O2, 5% CO2 Nitrogen balanced) for 72 h. After incubation, the plates were subject to a freeze–thaw cycle (−80 °C) and the parasite growth was quantified by the SYBR Green I method as previously described [33]. Briefly, 100 µL of homogenized parasite culture was transferred into 96-well black plates. […] The plates were incubated at room temperature in darkness for 1 h.
(§8) Growth inhibition experiments were conducted at least three times per compound (biological replicates, n ≥ 3). The IC50 differences for each inhibitor between the two P. falciparum strains were compared with a t test.

[4] = molecular target: T1, human Hsp90α (Homo sapiens, UniProt P07900); experiment: Biacore SPR analysis, full-length human Hsp90α; assay type: binding; conditions: SPR, 25 °C
T1 construct: Full-length human recombinant HSP90α was purchased; purchased Cayman Chemicals, MI
Experimental: (§2) Full-length human recombinant HSP90α was purchased (Cayman Chemicals, MI), while the malaria recombinant parasite proteins were generated according to the following protocol. […] Growth at 37 °C continued until the OD600 reached ~1.0, whereupon the temperature was lowered to 18 °C and protein expression was induced by the addition of 1 mM isopropyl β-D-thiogalactopyranoside (IPTG). Overnight post-induction cells were collected by centrifugation and resuspended in binding buffer [50 mM Hepes pH 7.5, 500 mM NaCl, 1 mM benzamidine, and 1 mM phenylmethanesulfonyl fluoride (PMSF)]. The cells were lysed by adding chemical lysis buffer (2% CHAPS, 0.1 mg/mL lysozyme and 0.5 U/mL benzonase), the lysate was clarified by centrifugation. The supernatant was loaded on to a nickel-nitrilotriacetic acid column pre-equilibrated with binding buffer (50 mM Hepes pH 7.5, 500 mM NaCl). Following a wash step with binding buffer containing 5 mM imidazole, the bound protein was eluted with elution buffer (50 mM Hepes pH 7.5, 500 mM NaCl, 250 mM imidazole). The eluate was then loaded on to a 16/60 Superdex 200 size exclusion column pre-equilibrated with 50 mM Hepes pH 7.5 and 500 mM NaCl. Target protein-containing fractions were pooled and concentrated using centrifugal filter units (Amicon). The final protein products and samples for different steps in the purification procedures were evaluated in SDS-Page gels.
SPR measurements were performed on Biacore T200 instrument (GE Healthcare) at 25 °C. Purified P. falciparum Hsp90 and PfGRP94 N-terminal domain, and full-length human Hsp90α were immobilized on a CM5 sensorchip using NHS/EDC coupling following the manufacturer protocol to a level of <10,000 RUs, a reference surfaces without immobilized proteins served as a control for nonspecific binding and refractive index changes. […] The running buffer was 10 mM HEPES, pH 7.4, 150 mM NaCl, 0.005% P20, 1% DMSO and 2 mM MgCl2. Buffer alone injections were used as blanks. The sensor surface was regenerated between injections with a short injection of a buffer 10 mM HEPES, pH 7.4, 150 mM NaCl, 0.005% P20 and 3 mM EDTA. The Biacore responses recorded during the 30 s of the injection were used to estimate the association constant (k on) and the 300 s after the injection were used to estimate the dissociation constant (k off). All kinetic constants were estimated using double subtracted sensorgrams using BiaEvaluation Software (GE Healthcare), the kinetic constants were used to calculate the dissociation constant (K d).

[5] = test system: P. falciparum 3D7; experiment: Parasite stage specific effect, 3D7; assay type: cell-based, Plasmodium falciparum; conditions: 3D7, 24 h; 17-DMAG 1.2 µM, NVP-AUY922 0.72 µM
Experimental: as §1

[6] = test system: P. falciparum W2; experiment: Recrudescence assay, W2; assay type: cell-based, Plasmodium falciparum
Experimental: (§3) The assay is a modification of the previously reported bulk recrudescence assay. […] […] After drug exposure, the medium containing the drug was removed and the cultures were washed twice with compound-free media, and resuspended in RPMI to adjust haematocrit to 5%. The medium was changed every day and red blood cells were added every 2 days to adjust the haematocrit. The cultures were monitored daily until they reached 10% parasitaemia, which represented the end point of the experiment. Culture parasitaemia was determined by scoring >2000 erythrocytes in Giemsa-stained thin blood films as parasitized or not. The median number of days to reach this level of parasitaemia was reported for all the experiments. All experiments were conducted in triplicate; each replica was conducted on different days. The differences in the recovery times between control cultures to those exposed to Hsp90 inhibitors were analysed using the non-parametric statistic Kruskal–Wallis test. If the overall test was significant then Dunn’s multiple comparison tests were used to identify significant differences among pair comparisons. The same statistical analysis was applied when comparing P. falciparum cultures exposed to DHA alone versus DHA in combination with Hsp90 inhibitors. […] The statistical analyses were performed with the software Prism v6 (GraphPad Software, San Diego, CA).

[7] = mouse, in vivo; cited from earlier work
[8] = test system: P. falciparum chloroquine resistant W2; experiment: Growth inhibition assay (SYBR Green I), W2; conditions: W2, 72 h; for IC50: synchronized ring culture
Experimental: as §5, §6, §7, §8

[9] = test system: P. falciparum 3D7; experiment: Recrudescence assay, 3D7; assay type: cell-based, Plasmodium falciparum
Experimental: as §3

[10] = molecular target: P. falciparum Hsp90 (Plasmodium falciparum, UniProt Q8IC05); experiment: biochemical; assay type: binding
Experimental: as §2
(§4) SPR measurements were performed on Biacore T200 instrument (GE Healthcare) at 25 °C. Purified P. falciparum Hsp90 and PfGRP94 N-terminal domain, and full-length human Hsp90α were immobilized on a CM5 sensorchip using NHS/EDC coupling following the manufacturer protocol to a level of <10,000 RUs, a reference surfaces without immobilized proteins served as a control for nonspecific binding and refractive index changes. Seven different concentrations of the ligands between 0.4 nM and 1 mM, were injected in triplicate over the sensor chip at 30 μL/min in random order. The running buffer was 10 mM HEPES, pH 7.4, 150 mM NaCl, 0.005% P20, 1% DMSO and 2 mM MgCl2. Buffer alone injections were used as blanks. The sensor surface was regenerated between injections with a short injection of a buffer 10 mM HEPES, pH 7.4, 150 mM NaCl, 0.005% P20 and 3 mM EDTA. The Biacore responses recorded during the 30 s of the injection were used to estimate the association constant (k on) and the 300 s after the injection were used to estimate the dissociation constant (k off). All kinetic constants were estimated using double subtracted sensorgrams using BiaEvaluation Software (GE Healthcare), the kinetic constants were used to calculate the dissociation constant (K d).

[11] = molecular target: P. falciparum Grp94 (Plasmodium falciparum, UniProt Q8I0V4); experiment: biochemical; assay type: binding; conditions: SPR, 25 °C
Experimental: as §2, §4

Sequence of P. falciparum Grp94 (Q8I0V4 entry or part of it): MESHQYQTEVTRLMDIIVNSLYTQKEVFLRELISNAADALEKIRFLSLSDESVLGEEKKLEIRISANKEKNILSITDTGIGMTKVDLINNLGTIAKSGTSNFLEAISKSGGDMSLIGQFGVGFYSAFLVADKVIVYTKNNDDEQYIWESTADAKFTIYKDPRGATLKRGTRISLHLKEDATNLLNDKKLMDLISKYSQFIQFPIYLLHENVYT
Sequence of P. falciparum Hsp90 (Q8IC05 entry or part of it): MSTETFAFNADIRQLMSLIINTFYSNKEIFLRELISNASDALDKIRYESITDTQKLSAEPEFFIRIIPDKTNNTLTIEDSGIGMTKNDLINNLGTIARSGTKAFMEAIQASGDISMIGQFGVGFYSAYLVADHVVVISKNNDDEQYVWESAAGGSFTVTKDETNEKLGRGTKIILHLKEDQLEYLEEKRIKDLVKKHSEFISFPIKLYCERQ

For `CO[C@H]1/C=C\C=C(/C)C(=O)NC2=CC(=O)C(NCCN(C)C)=C(C[C@@H](C)C[C@H](OC)[C@H](O)[C@@H](C)/C=C(\C)[C@@H]1OC(N)=O)C2=O` [17-DMAG, 17-(dimethylaminoethylamino)-17-demethoxygeldanamycin], the IC50 ([1]; Homo sapiens, Fibroblast, read-out: IC50 against human cells) was over 10000 nM, the “growth inhibition for the human cells” value ([1]; NHLF, 0.5 to 10 µM) was at most 25% and the “growth of host cells compared to no drug controls” value ([1]; NHLF, 0.5 to 10 µM, t test) was “only the highest concentration (10 µM) was significantly different from the controls”. The “effect against all parasite stages (ring, trophozoite, schizont)” value [2] was “effective against all parasite stages”, the IC50 [3] was 118 nM and the IC90 ([3]; Plasmodium falciparum) was 287 nM. For the same molecule, the IC50 ([3]; Plasmodium falciparum) was 118 nM, the kd [4] was 0.007 s⁻¹ and the “effect against all parasite stages (ring, trophozoite, schizont)” value [5] was “effective against all parasite stages”. For the same molecule, the “recovery time in combination with DHA vs DHA alone” value ([6]; W2, 48 h, two concentrations plus DHA 100 nM) was “not significantly more toxic to W2”, the “delay of culture recovery vs untreated control (cytocidal activity)” value ([6]; W2, 48 h exposure, 17-AAG 1.5-6 µM, 17-DMAG 0.3-1.2 µM, NVP-AUY922 0.18-0.72 µM) was “only significantly different from the control parasite cultures when assayed at a concentration ~8 times its average IC50; also recorded: strong cytotoxic activities” and the tolerability [7] was “well tolerated without any visible side effects”. For the same molecule, the IC90 ([8]; Plasmodium falciparum) was 542 nM, the IC50 ([8]; Plasmodium falciparum) was 169 nM and the IC50 [8] was 170 nM. The “recovery time in combination with DHA vs DHA alone” value ([9]; 3D7, 48 h, two concentrations plus DHA 100 nM) was “more effective in combination against P. falciparum 3D7 but only at one of the lowest concentrations”, the “delay of culture recovery vs untreated control (cytocidal activity)” value ([9]; 3D7, 48 h exposure, 17-AAG 1.5-6 µM, 17-DMAG 0.3-1.2 µM, NVP-AUY922 0.18-0.72 µM) was “only significantly different from the control parasite cultures when assayed at a concentration ~8 times its average IC50; also recorded: strong cytotoxic activities” and the ka ([10]; SPR, 25 °C) was 208,000 1/Ms. It also gave a kd ([10]; SPR, 25 °C) of 0.001 s⁻¹, a Kd ([10]; SPR, 25 °C, calculated from kinetic constants, read-out: Kd) of 8 nM and a Kd ([10]; read-out: Kd against the parasite chaperone) of 8.23 nM. For the same molecule, the ka [11] was 53,000 1/Ms, the kd [11] was 0.001 s⁻¹ and the Kd ([11]; calculated from kinetic constants, read-out: Kd) was 23 nM.
